{"source": "patent US9682085B2", "about": "“Anti-proprotein convertase subtilisin kexin type 9 (anti-PCSK9) compounds and methods of using the same in the treatment and/or prevention of cardiovascular diseases” (Shifa Biomedical Corporation, priority 2013, dated 2017)", "key": {"mice fed high fat diet": {"system": "mice fed high fat diet", "test": "Test for efficacy in animal model (mice fed high fat diet)", "format": "in vivo, mice (C57BL/6)", "procedure": "SBC-115,076, and SBC-110,034 were tested for their efficacy in male mice (C57BL/6 mice). Mice were housed as four animals per cage under climate-controlled conditions of temperature (20-24° C.), humidity (60-70%), and alternating 12 h light/dark cycles. One group was fed commercial chow diet (Prolab RMH 3000, PMI feeds, St. Louis, Mo.) to serve as a negative control, while the other four groups were fed high fat diet (TD.06414), which provides 60% of calories from fat. Water was provided ad libitum. Plasma was collected once weekly to monitor the level of LDL. After 4 weeks of feeding a high fat-diet, mice were randomly assigned to one of several groups such that the average LDL levels were equal among different groups. […] Blood samples (75 μl) were collected twice weekly after drug administration from the retro-orbital venous plexus via heparinized capillary tubes containing 2 USP units of ammonium heparin per tube (Carolina, Burlington, N.C.). Plasma were separated immediately by centrifugation (5,000×g) for 5 min at room temperature and then kept at −80° C. until assayed for lipid profile. Plasma cholesterol, LDL-C, HDL-C, and triglyceride levels are measured enzymatically. Additionally, the plasma levels of PCSK9 and chemokines/cytokines were measured for potential pleiotropic effects of PCSK9 inhibitors using ELISA and multiplex assays."}, "HepG2 cells": {"system": "HepG2 cells", "test": "Uptake of Fluorescent Dil-LDL in HepG2 cells in situ", "format": "cell-based", "settings": "various concentrations (FIG. 6)", "procedure": "The SBC compounds were validated for their ability to increase uptake of Fluorescent Dil-LDL in HepG2 cells.\nWe also tested the ability of the PCSK9 compounds to enhance the uptake of Fluorescent Dil-LDL in HepG2 cells. Briefly, HepG2 cells were plated and allowed to grow overnight. Compounds were added to the cells followed by the addition of Fluorescent Dil-LDL. Cells were washed extensively, and the Fluorescent Di-LDL taken up by the cells were measured using the Synergy 2 plate reader (FIG. 6)."}, "PCSK9": {"target": "T1, PCSK9 (Homo sapiens, UniProt Q8NBP7)", "T1 construct": "host or cells: patients (endogenous circulating PCSK9)", "T1 sequence (Q8NBP7 153-692)": "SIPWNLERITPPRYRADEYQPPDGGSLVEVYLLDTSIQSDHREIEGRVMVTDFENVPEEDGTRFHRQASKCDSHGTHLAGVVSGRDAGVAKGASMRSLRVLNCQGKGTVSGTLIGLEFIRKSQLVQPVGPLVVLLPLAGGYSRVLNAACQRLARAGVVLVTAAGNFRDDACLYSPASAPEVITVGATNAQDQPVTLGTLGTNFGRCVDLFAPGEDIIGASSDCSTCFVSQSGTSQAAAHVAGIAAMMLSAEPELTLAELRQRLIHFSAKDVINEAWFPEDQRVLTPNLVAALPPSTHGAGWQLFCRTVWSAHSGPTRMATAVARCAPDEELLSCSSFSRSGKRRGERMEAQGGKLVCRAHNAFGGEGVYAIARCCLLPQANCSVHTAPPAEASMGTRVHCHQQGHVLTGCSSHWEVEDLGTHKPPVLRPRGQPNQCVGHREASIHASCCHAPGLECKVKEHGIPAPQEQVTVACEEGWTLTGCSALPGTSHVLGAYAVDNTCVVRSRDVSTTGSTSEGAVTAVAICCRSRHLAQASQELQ", "settings": "single injection, clinical trial; cited from earlier work"}, "[1]": {"settings": "second study, 40 mg/kg, after three weeks, P<0.01"}, "[2]": {"settings": "8 mg/kg daily s.c., after two weeks, P<0.01 (FIG. 8)"}}}
{"compound": "CC(C)c1c(C(=O)Nc2ccccc2)c(-c2ccccc2)c(-c2ccc(F)cc2)n1CC[C@@H](O)C[C@@H](O)CC(=O)O", "note": "[Atorvastatin, reference compound]", "values": [{"measurement": "mean reduction in total cholesterol levels relative to high fat diet animal levels", "setting": "mice fed high fat diet; [1]", "value": 27, "unit": "%"}, {"measurement": "mean reduction toward return to regular diet cholesterol levels", "setting": "mice fed high fat diet; [1]", "value": 44, "unit": "%"}]}
{"compound": "Cc1cc(C(=O)C2=C(O)C(=O)N(CCCN3CCOCC3)C2c2ccncc2)ccc1OCc1ccccc1", "note": "(stereo not shown) [SBC-115,076]", "values": [{"measurement": "mean reduction in total cholesterol levels relative to high fat diet animal levels", "setting": "mice fed high fat diet; [2]", "value": 32, "unit": "%"}, {"measurement": "mean reduction toward return to regular diet cholesterol levels", "setting": "mice fed high fat diet; [2]", "value": 50, "unit": "%"}, {"measurement": "cholesterol levels in mice fed high fat diet", "setting": "mice fed high fat diet; 8 mg/kg daily subcutaneously for two weeks", "value": "lowered cholesterol levels"}, {"measurement": "uptake of Fluorescent Dil-LDL", "setting": "HepG2 cells", "value": "increase in the Fluorescent Dil-LDL uptake using submicromolar concentrations"}]}
{"compound": "REGN727: Regeneron/Sanofi fully-human PCSK9 monoclonal antibody", "values": [{"measurement": "reduction of LDL levels", "setting": "PCSK9", "value": "more than 60%"}]}
